# Results taken from patent publication US20220047559A1, “DRUG COMPOSITION FOR TREATING BREAST CANCER AND METHOD FOR MANUFACTURING THE SAME” (National Chiao Tung University, priority 2020, published 2022).
# What was measured:
# [1] = Release of drugs from dialysis bag in pH 7.4 PBS buffer solution; assay type: physicochemical; conditions: 37° C.
# Protocol: FIG. 3A and FIG. 3B show the release curves of ganetespib. FIG. 3C and FIG. 3D show the release curves of curcumin For free ganetespib, the dialysis bag stops release after 8 hours, and about 73% ganetespib is released. For ganetespib in the drug composition, the dialysis bag continues release until as long as 12 hours has elapsed, and about 80% ganetespib is released. As indicated by the arrows in FIG. 3B, CHC/GAN where ganetespib is encapsulated by CHC releases ganetespib more slowly and has higher content of ganetespib. It is because CHC protects ganetespib from being damaged by the environment and makes ganetespib release slowly. For free curcumin, although the dialysis bag have continued releasing curcumin for as long as 168 hours, the accumulated released curcumin is only about 8%. The slow release rate of free curcumin is owing to low aqueous solubility of curcumin Low aqueous solubility of curcumin also leads to low bioavailability of curcumin. The release rate of the curcumin in CHC/CCM is about the same as the free curcumin. The accumulated released curcumin of the curcumin in CHC/CCM is about 9%, slightly higher than that of the free curcumin. However, it can be seen in FIG. 3D: the difference therebetween increases with time.
# [2] = test system: SK-BR-3 cells; assay: Cytotoxicity test (MTS, cell survival rate, IC50, combination index); assay type: cell-based; conditions: Homo sapiens, 48 hours
# Protocol: Culture SK-BR-3 cells in a 24-well culture plate, and each well has 10^4 cells. After cells have attached to the culture plate for 20-24 hours, remove the culture liquid, and rinse the cells with PBS. Use Dulbecco's Modified Eagle Medium (DMEM) to dilute the drug compositions GAN, CCM, CHC/GAN, CHC/CCM, and CHC/GAN-CCM. Add the diluted drug compositions to the cells, and co-culture each drug composition and the cells for 48 hours. Remove DMEM, and flush the product of co-culture with PBS. Add MTS and DMEM (1:5 (v/v)) into each well of the cell culture plate, and culture them for 2-4 hours. Use a microplate reader to measure the absorptivity of the light having a wavelength of 490 nm, whereby to estimate the cell survival rates. The cell survival rate can be used to determine the half inhibitory concentration (IC50) and the combination index (CI) of two drugs. CHC/GAN and CHC/CCM can more effectively kill cells than the drugs in form of free molecules. […] Therefore, the drug composition carried by CHC nanoparticles can more effectively treat breast cancer in smaller dosage. Especially, while ganetespib is carried by CHC nanocarriers, the treating effect may be increased 60-70 times. […] The results also indicate that the effective concentration of the drug composition of the present invention may be lower than that of the conventional drug composition. […]
accumulated released curcumin ([1]; 168 hours),time after which release of ganetespib stops [1] [h],ganetespib released ([1]; at the time release stops),Compound,IC50 ([2]; curcumin) [µg/mL],IC50 ([2]; ganetespib) [µg/mL]
about 8%,,,"COc1cc(/C=C/C(=O)CC(=O)/C=C/c2ccc(O)c(OC)c2)ccc1O [CCM, curcumin]",12,
,8,about 73%,"CC(C)c1cc(-c2n[nH]c(=O)n2-c2ccc3c(ccn3C)c2)c(O)cc1O [GAN, ganetespib]",,0.00188
